From US20150111771A1, “Method for Identifying Agents Capable of Inducing Respiratory Sensitization and Array and Analytical Kits for Use in the Method” (SENZAGEN AB, priority 2012, published 2015)
Read-outs that look alike come from different tables or passages of the source.

Tests used:
[1] = tested on: respiratory sensitization; conditions: cited from earlier work
MUTZ-3 cells [2] = assay: GARD transcriptional profiling of stimulated MUTZ-3 with GARD Respiratory Prediction Signature (PCA / SVM classification); conditions: for Transcriptional profile in PCA based on GRPS, by mechanistic subdomain: 24 h stimulation, 302 GRPS transcripts (FIG. 5B, 5C)
Description: Cultures were maintained at 200.000 cells/ml during expansion, with a media change every 3-4 days. No differentiating steps were performed and instead, the proliferating progenitor MUTZ-3 was used for stimulations. Prior to each experiment, the cells were immunophenotyped using flow cytometry as a quality control. Cells were seeded in 6-well plates at 200.000 cells/ml. Stock solutions of each compound were prepared in either DMSO or distilled water, and were subsequently diluted so the in-well concentrations corresponded to the GARD input concentration, and in-well concentrations of DMSO were 0.1%. Cells were incubated for 24 h at 37° C. and 5% CO2. Thereafter, cells were harvested and analyzed by flow cytometry. In parallel, harvested cells were lysed in TRIzol reagent (Invitrogen) and stored at −20° C. until RNA extraction. Stimulations with chemicals were performed in three individual experiments, so that triplicates samples were obtained.
In short, a phenotypic control of MUTZ-3 was performed prior to chemical stimulation. Stimulated cells were harvested and RNA was isolated. A control of the maturity state of the cells was performed by flow cytometric analysis of CD86. Preparation of cDNA and hybridization, washing and scanning of the Human Gene 1.0 ST Arrays (Affymetrix, Santa Clara, Calif., USA) was performed, according to standardized protocols provided by the manufacturer (Affymetrix).
In short, microarray data were normalized and quality checked with the RMA algorithm, using Affymetrix Expression Console (Affymetrix). […] The biological relevance of the GRPS was explored using Ingenuity Pathways Analysis (IPA) (Ingenuity Systems, Inc. Mountain View, USA), by performing a ‘Core Analysis’. […] Biological relevance was established by exploring the Canonical Pathways associated with input molecules.
The data set was divided into a training set and a test set, consisting of 70% and 30%, of the chemical compounds, respectively. The division was performed randomly, while maintaining the proportions of sensitizers and non-sensitizers in each subset at the same ratio as in the complete data set. A test biomarker signature was identified in the training set, using ANOVA filtering and backward elimination, as described above.
In addition, the test set contained nine samples of DMSO and unstimulated controls respectively. […] Any samples included in this analysis are inappropriate to include in a test set due to the risk of over fitting.

[3] = Max solubility of reference chemicals in cell medium; conditions: given for non-toxic compounds insoluble at 500 μM
[4] = tested on: CD86 expression of MUTZ-3 cells; assay: CD86 expression of MUTZ-3 cells following chemical stimulation (flow cytometry); type: cell-based, human; conditions: 24 h at GARD input concentration; student's t-test vs corresponding vehicle, p<0.05, n=3
Description: FIG. 4: CD86 expression of MUTZ-3 cells following chemical stimulations. Data shown is an average of (chemical stimulations, n=3, DMSO and unstimulated cells (n=6), with error bars showing standard deviation. Statistical significance was determined by student's t-test, comparing each stimulation with its corresponding vehicle, with p<0.05 indicated by *.
Br J Haematol 2007, 138(3):281-290). […] Thereafter, cells were harvested and analyzed by flow cytometry.
All cell surface staining and washing steps were performed in PBS containing 1% BSA (w/v). Cells were incubated with specific mouse mAbs for 15 min at 4° C. The following mAbs were used for flow cytometry: FITC-conjugated CD1a (DakoCytomation, Glostrup, Denmark), CD34, CD86, and HLA-DR (BD Biosciences), PE-conjugated CD14 (DakoCytomation), CD54 and CD80 (BD Biosciences). Mouse IgG1, conjugated to FITC or PE were used as isotype controls (BD Biosciences) and PI was used to assess cell viability. […]
Prior to chemical challenge, the cells were quality controlled by measuring the cellular expression of common myeloid and dendritic cell markers using flow cytometry. […] Following chemical stimulation, the general maturity state of the cells was controlled again, as determined by the expression of the co-stimulatory marker CD86, with results presented in FIG. 4. […]

MUTZ-3 cells [5] = assay: Cytotoxicity by propidium iodide staining, relative viability of stimulated cells (Rv90); type: cell-based, human; conditions: concentration yielding 90% relative viability
Description: All chemicals were from Sigma-Aldrich, St. Louis, Mo., USA. Compounds were dissolved in either dimethyl sulfoxide (DMSO) or distilled water.

[6] = external test set, biological triplicates, mapped into PCA space of train data (FIG. 6A)
[7] = clinical observations in humans

O=C1C=CC(=O)O1 [Maleic Anhydride]
Classification of reference chemical as respiratory sensitizer or non-sensitizer [1]: respiratory sensitizers

Oc1ccccc1 [phenol]
Position of external test set samples in PCA plot based on the GRPS (MUTZ-3 cells [2]; [6]): correctly grouped together with non-sensitizers

O=C(O)c1ccc2c(c1)C(=O)OC2=O [Trimellitic anhydride]
Classification of reference chemical as respiratory sensitizer or non-sensitizer [1, 7]: respiratory sensitizers
Max solubility [3]: 150 µM

CCCCCCCC/C=C\CCCCCCCC(=O)OCCOCC(OCCO)C1OCC(OCCO)C1OCCO (centres unmarked) [Tween 80, polyoxyethylene (20) sorbitan monooleate]
Classification of reference chemical as respiratory sensitizer or non-sensitizer [1, 7]: non-sensitizers

COC(=O)c1ccccc1O [Methyl salicylate]
Classification of reference chemical as respiratory sensitizer or non-sensitizer [1, 7]: non-sensitizers

O=C=NCCCCCCN=C=O [Hexamethylen diisocyanate]
CD86 expression following chemical stimulation [4]: statistically significant upregulation of CD86
Classification of reference chemical as respiratory sensitizer or non-sensitizer [1, 7]: respiratory sensitizers
Max solubility [3]: 100 µM

OCC(O)CO [glycerol]
Position of external test set samples in PCA plot based on the GRPS (MUTZ-3 cells [2]): correctly grouped together with non-sensitizers

CCOC(=O)c1ccccc1C(=O)OCC [diethyl phtalate]
Position of external test set samples in PCA plot based on the GRPS (MUTZ-3 cells [2]; [6]): correctly grouped together with non-sensitizers

O=C(O)c1ccccc1O [salicylic acid]
Position of external test set samples in PCA plot based on the GRPS (MUTZ-3 cells [2]): correctly grouped together with non-sensitizers

O=C=Nc1ccc(Cc2ccc(N=C=O)cc2)cc1 [Methylene diphenol diisocyanate]
Classification of reference chemical as respiratory sensitizer or non-sensitizer [1, 7]: respiratory sensitizers
Max solubility [3]: 50 µM

O=S(=O)([O-])[O-].[Zn+2] [Zinc sulphate]
Classification of reference chemical as respiratory sensitizer or non-sensitizer [1, 7]: non-sensitizers

N.N.O=S(=O)(O)OOS(=O)(=O)O [Ammonium persulfate]
Classification of reference chemical as respiratory sensitizer or non-sensitizer [1]: respiratory sensitizers
Transcriptional profile in PCA based on GRPS, by mechanistic subdomain (MUTZ-3 cells [2]): most extreme transcriptional changes

[Cl][Pt-2]([Cl])([Cl])([Cl])([Cl])[Cl].[NH4+].[NH4+] [Ammonium hexachloroplatinate]
Classification of reference chemical as respiratory sensitizer or non-sensitizer [1, 7]: respiratory sensitizers
Transcriptional profile in PCA based on GRPS, by mechanistic subdomain (MUTZ-3 cells [2]): most extreme transcriptional changes
Max solubility [3]: 35 µM

CCCCCCCC(=O)O [octanoic acid]
Position of external test set samples in PCA plot based on the GRPS (MUTZ-3 cells [2]): correctly grouped together with non-sensitizers

O=Cc1ccccc1 [benzaldehyde]
Position of external test set samples in PCA plot based on the GRPS (MUTZ-3 cells [2]; [6]): correctly grouped together with non-sensitizers

CC(C)O [Isopropanol]
Classification of reference chemical as respiratory sensitizer or non-sensitizer [1, 7]: non-sensitizers

CC(O)CO (centres unmarked) [Propylene glycol]
Classification of reference chemical as respiratory sensitizer or non-sensitizer [1, 7]: non-sensitizers

CCCCCCCCCCCCOS(=O)(=O)[O-].[Na+] [sodium dodecyl sulphate]
Position of external test set samples in PCA plot based on the GRPS (MUTZ-3 cells [2]; [6]): correctly grouped together with non-sensitizers

O=CCCCC=O [Glutaraldehyde]
CD86 expression following chemical stimulation [4]: statistically significant upregulation of CD86
Rv90 (MUTZ-3 cells [5]): 10 µM
Classification of reference chemical as respiratory sensitizer or non-sensitizer [1, 7]: respiratory sensitizers
Transcriptional profile in PCA based on GRPS, by mechanistic subdomain (MUTZ-3 cells [2]): groups closely with both acid anhydrides and diisocyanates

Clc1ccccc1 [Chlorobenzene]
Classification of reference chemical as respiratory sensitizer or non-sensitizer [1]: non-sensitizers
Position of external test set samples in PCA plot based on the GRPS (MUTZ-3 cells [2]; [6]): correctly grouped together with non-sensitizers
Max solubility [3]: 98 µM

CCCCO [1-Butanol]
Classification of reference chemical as respiratory sensitizer or non-sensitizer [1]: non-sensitizers

O=C1OC(=O)c2ccccc21 [Phtalic Anhydride]
Classification of reference chemical as respiratory sensitizer or non-sensitizer [1, 7]: respiratory sensitizers
Max solubility [3]: 200 µM
